Measurements published in US12630565B2, “DNA-dependent protein kinase inhibitor” (DIZAL (JIANGSU) PHARMACEUTICAL CO., LTD., priority 2019, dated 2026).

How the values were obtained:
[1] = Metabolic stability assay (human microsomal Clint); type: in vitro ADME; conditions: 1 mg/mL microsomes, 1 mM NADPH, 37° C.; for microsomal CLint at 1 μM: human, pooled human liver microsomes, pH 7.4, 1 μM compound; for Human liver microsomal CLint: 1 μM compound
Procedure: 1 μM compound was incubated with 1 mg/mL of microsomes (Pooled HLM with 20 mg/ml protein cone) at 37° C. in 250 μL of buffer (100 mM phosphate buffer, pH-7.4) containing 1 mM NADPH solution. 20 μL of incubation mix was quenched with 5 volumes chilled acetonitrile at different time points 0, 0.5, 5, 10, 15, 20 and 30 min in a fresh 96 well plate. The quench plate was centrifuged at 4000 rpm for 15 min. 40 μL of supernatant was diluted to 200 μL with pure water and analyzed using LC-MS/MS.
In vitro intrinsic clearance of the drugs in the microsome CLint (μl/min/mg) was calculated in the similar manner as the CLint in the hepatocyte.

Rat hepatocyte = assay: Metabolic stability assay (rat hepatocyte Clint); type: in vitro ADME; conditions: 1 μM compound, cryopreserved hepatocytes 1 million cells per mL
Procedure: Viability of cryopreserved hepatocytes was determined using trypan blue and the cell conc. was adjusted to […] with buffer. 1 μM compound (in Acetonitrile; 0.01% DMSO) was incubated with 250 μL of hepatocytecells (1 million cells per mL) in a 96 deep well plate. Reaction was stopped at different time points (0, 0.5, 5, 15, 30, 45, 60, 80, 100 and 120 min) by addition of 3 volumes of chilled acetonitrile to 20 μL of reaction mixture and centrifuged at 4° C. for 15 min. 40 μL of supernatant was diluted to 200 μL with pure water and analyzed using LC-MS/MS.
In vitro hepatocyte clearance was estimated based on determination of elimination half-life (T1/2) of compounds disappearance from their initial concentrations. Peak area ratios of each compound (test or control) to IS was calculated. Drug elimination rate constant k (min−1), T1/2 (min), and in vitro intrinsic clearance CLint (μL/min/E6) was calculated according to the following equations: […]
Where Chep (cells×μL^−1) is the cell concentration in the incubation system.

MDR1, BCRP = assay: MDCKII-MDR1-BCRP efflux assay; type: in vitro ADME; conditions: dog, pH 7.4, 5 μM compound, HBSS pH 7.4, read-out: MDCK-Mdr1-BCRP efflux ratio
Procedure: The apical-to-basolateral (A-B) and basolateral-to-apical (B-A) transport of compound in HBSS (25 mM HEPES, pH 7.4) was measured across MDCKII-MDR1-BCRP cell monolayers. Incubations were performed at approximately 37° C. for 120 min, with functionality of the test system being confirmed using 5 μM digoxin as a positive control substrate. Transport of 5 μM compound and control compound were determined by quantifying substrate concentration in the incubation medium of donor compartment at the beginning of the incubation period, and both donor and receiver compartments at the end of the incubation period. The data was used to calculate the apparent permeability (Papp). All incubations were performed in triplicate and integrity of the cell monolayers was confirmed using the marker Lucifer yellow.
The permeability coefficient Pexact (cm/s) was calculated using the equation: […]
The Pexact ratio was calculated using the equation: […]
The efflux ratio was calculated using the equation: […]
Where dCr/dt is the cumulative concentration of compound in the receiver chamber as a function of time (μM/s); Vr is the solution volume in the receiver chamber (0.1 mL on the apical side, 0.3 mL on the basolateral side); A is the surface area for the transport, i.e. 0.11 cm2 for the area of the monolayer; CO is the initial concentration in the donor chamber (μM).

[2] = biological target: Full length human DNAPK protein (Homo sapiens, UniProt P78527); assay: DNA-PK enzymatic assay (TR-FRET); type: biochemical; conditions: 10 μM ATP, 1.6 μM peptide substrate

Compound | microsomal CLint at 1 μM [1] [µL/min/mg] | Rat hepatocyte CLint (μl/min/10^−6 cells) (Rat hepatocyte) | efflux ratio at 120 min, 5 μM (MDR1, BCRP) | IC50 [2] [nM] | Human liver microsomal CLint [1] [µL/min/mg]
COCCCn1nc(C)c2cnc(Nc3cn4ncnc4cc3C)nc21 [Example 65, 1-(3-methoxypropyl)-3-methyl-N-(7-methyl-[1,2,4]triazolo[1,5-a]pyridin-6-yl)-1H-pyrazolo[3,4-d]pyrimidin-6-amine] | 17.1 | 13.3 | 2 | 8 | –
Cc1cc2ncnn2cc1Nc1ncc2c(C)nn(C3CCOC(C)C3)c2n1 (single isomer, unassigned) [Example 35, 3-methyl-N-(7-methyl-[1,2,4]triazolo[1,5-a]pyridin-6-yl)-1-(2-methyltetrahydro-2H-pyran-4-yl)-1H-pyrazolo[3,4-d]pyrimidin-6-amine] | 55.4 | 21.7 | 1.7 | 2.8 | –
CCC(C)n1nc(C)c2cnc(Nc3cn4ncnc4cc3C)nc21 (single isomer, unassigned) [Example 61, 1-(sec-butyl)-3-methyl-N-(7-methyl-[1,2,4]triazolo[1,5-a]pyridin-6-yl)-1H-pyrazolo[3,4-d]pyrimidin-6-amine] | 34.5 | 5.2 | – | 3.5 | –
Cc1cc2ncnn2cc1Nc1ncc2c(C)nn(C3CCCC3)c2n1 [Example 47, 1-cyclopentyl-3-methyl-N-(7-methyl-[1,2,4]triazolo[1,5-a]pyridin-6-yl)-1H-pyrazolo[3,4-d]pyrimidin-6-amine] | 89.7 | 43.3 | – | 1.7 | –
CCC(C)n1nc(C)c2cnc(Nc3cn4ncnc4cc3C)nc21 (single isomer, unassigned) [Example 62, 1-(sec-butyl)-3-methyl-N-(7-methyl-[1,2,4]triazolo[1,5-a]pyridin-6-yl)-1H-pyrazolo[3,4-d]pyrimidin-6-amine] | – | 11.7 | – | 5.1 | 42.4
Cc1cc2ncnn2cc1Nc1ncc2c(C)nn(CCOC(F)(F)F)c2n1 [Example 64, 3-methyl-N-(7-methyl-[1,2,4]triazolo[1,5-a]pyridin-6-yl)-1-(2-(trifluoromethoxy)ethyl)-1H-pyrazolo[3,4-d]pyrimidin-6-amine] | 50.8 | 38.6 | – | 3.6 | –
Cc1cc2ncnn2cc1Nc1ncc2c(n1)c(C1CCOCC1C)nn2C (single isomer, unassigned) [Example 55, 1-methyl-N-(7-methyl-[1,2,4]triazolo[1,5-a]pyridin-6-yl)-3-(3-methyltetrahydro-2H-pyran-4-yl)-1H-pyrazolo[4,3-d]pyrimidin-5-amine] | – | – | – | 2.5 | –
COCCC(C)n1nc(C)c2cnc(Nc3cn4ncnc4cc3C)nc21 (single isomer, unassigned) [Example 67, 1-(4-methoxybutan-2-yl)-3-methyl-N-(7-methyl-[1,2,4]triazolo[1,5-a]pyridin-6-yl)-1H-pyrazolo[3,4-d]pyrimidin-6-amine] | 104 | 8.3 | – | 27 | –
COCCC(C)n1nc(C)c2cnc(Nc3cn4ncnc4cc3C)nc21 (single isomer, unassigned) [Example 68, 1-(4-methoxybutan-2-yl)-3-methyl-N-(7-methyl-[1,2,4]triazolo[1,5-a]pyridin-6-yl)-1H-pyrazolo[3,4-d]pyrimidin-6-amine] | – | 37.0 | – | 65.3 | 201.9
Cc1cc2ncnn2cc1Nc1ncc2c(C)nn(C3CCC3)c2n1 [Example 45, 1-cyclobutyl-3-methyl-N-(7-methyl-[1,2,4]triazolo[1,5-a]pyridin-6-yl)-1H-pyrazolo[3,4-d]pyrimidin-6-amine] | 70 | 64.0 | – | 4.3 | –
Cc1cc2ncnn2cc1Nc1ncc2c(C)nn(CC3CCC3)c2n1 [Example 46, 1-(cyclobutylmethyl)-3-methyl-N-(7-methyl-[1,2,4]triazolo[1,5-a]pyridin-6-yl)-1H-pyrazolo[3,4-d]pyrimidin-6-amine] | 105 | 60.9 | – | 3.3 | –
COC(C)Cn1nc(C)c2cnc(Nc3cn4ncnc4cc3C)nc21 (single isomer, unassigned) [Example 70, 1-(2-methoxypropyl)-3-methyl-N-(7-methyl-[1,2,4]triazolo[1,5-a]pyridin-6-yl)-1H-pyrazolo[3,4-d]pyrimidin-6-amine] | – | – | – | 4.3 | –
COC(C)Cn1nc(C)c2cnc(Nc3cn4ncnc4cc3C)nc21 (single isomer, unassigned) [Example 71, 1-(2-methoxypropyl)-3-methyl-N-(7-methyl-[1,2,4]triazolo[1,5-a]pyridin-6-yl)-1H-pyrazolo[3,4-d]pyrimidin-6-amine] | – | – | – | 6.4 | –

These reach a lower IC50 [2]. Values come first.

microsomal CLint at 1 μM [1] [µL/min/mg] | Rat hepatocyte CLint (μl/min/10^−6 cells) (Rat hepatocyte) | efflux ratio at 120 min, 5 μM (MDR1, BCRP) | IC50 [2] [nM] | Human liver microsomal CLint [1] [µL/min/mg] | Compound
– | – | – | 1.1 | – | Cc1cc2ncnn2cc1Nc1ncc2c(n1)c(C1CCOCC1C)nn2C (single isomer, unassigned) [Example 56, 1-methyl-N-(7-methyl-[1,2,4]triazolo[1,5-a]pyridin-6-yl)-3-(3-methyltetrahydro-2H-pyran-4-yl)-1H-pyrazolo[4,3-d]pyrimidin-5-amine]
173 | 16.9 | – | 1.5 | – | Cc1cc2ncnn2cc1Nc1ncc2c(C)nn(C3CC4(CCC4)C3)c2n1 [Example 43, 3-methyl-N-(7-methyl-[1,2,4]triazolo[1,5-a]pyridin-6-yl)-1-(spiro[3.3]heptan-2-yl)-1H-pyrazolo[3,4-d]pyrimidin-6-amine]
41.4 | 10.8 | – | 1 | – | Cc1cc2ncnn2cc1Nc1ncc2c(C)nn([C@H]3CC[C@@H](F)CC3)c2n1 [Example 27, 1-((1s,4s)-4-fluorocyclohexyl)-3-methyl-N-(7-methyl-[1,2,4]triazolo[1,5-a]pyridin-6-yl)-1H-pyrazolo[3,4-d]pyrimidin-6-amine]
– | – | – | 1.5 | – | COC1CC2(C1)CC(n1nc(C)c3cnc(Nc4cn5ncnc5cc4C)nc31)C2 (centres unmarked) [Example 54, 1-(6-methoxyspiro[3.3]heptan-2-yl)-3-methyl-N-(7-methyl-[1,2,4]triazolo[1,5-a]pyridin-6-yl)-1H-pyrazolo[3,4-d]pyrimidin-6-amine]
– | – | – | 1.3 | – | Cc1cc2nccn2cc1Nc1ncc2c(C)nn(-c3ccc(C#N)cc3)c2n1 [Example 73, 4-(3-methyl-6-((7-methylimidazo[1,2-a]pyridin-6-yl)amino)-1H-pyrazolo[3,4-d]pyrimidin-1-yl)benzonitrile]
115 | 40.9 | – | 1.3 | – | Cc1cc2nccn2cc1Nc1ncc2c(C)nn(C3CCC(F)(F)CC3)c2n1 [Example 22, 1-(4,4-difluorocyclohexyl)-3-methyl-N-(7-methylimidazo[1,2-a]pyridin-6-yl)-1H-pyrazolo[3,4-d]pyrimidin-6-amine]
70 | 14.1 | – | 1.3 | – | Cc1cc2ncnn2cc1Nc1ncc2c(C)nn([C@H]3CC[C@H](F)CC3)c2n1 [Example 28, 1-((1r,4r)-4-fluorocyclohexyl)-3-methyl-N-(7-methyl-[1,2,4]triazolo[1,5-a]pyridin-6-yl)-1H-pyrazolo[3,4-d]pyrimidin-6-amine]
